Source: patent publication US4206215A, “Antimicrobial bis-[4-(substituted-amino)-1-pyridinium]alkanes” (Sterling Drug Inc., priority 1977, dated 1980)
Where two headings read alike, the source gives them in different places.

Experiments:
S. Aureus Smith = test: In vitro antibacterial activity, MIC (modified Autotiter method); assay type: cell-based, Staphylococcus aureus; settings: 18-20 hours at 37° C.
In short: (§1)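 Autotiter-based broth dilution, modified from Goss: 1,000 mcg./ml. stock, twofold steps in sterile water, then inoculated 2x semisynthetic medium (glucose) dispensed automatically. Final range 500–0.06 mcg./ml.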

E. coli 100/B22 = test: as above; assay type: cell-based, Escherichia coli; settings: for MIC E. coli 100/B22: 18-20 hours at 37° C.
In short: as §1

E. coli AB1932-1 = test: as above; assay type: cell-based, Escherichia coli; settings: 18-20 hours at 37° C.
In short: as §1

E. coli Vogel = test: as above; assay type: cell-based, Escherichia coli; settings: 18-20 hours at 37° C.
In short: as §1

K. pneum. 39645 = test: as above; assay type: cell-based, Klebsiella pneumoniae; settings: 18-20 hours at 37° C.
In short: as §1

P. mirab. MGH-1 = test: as above; assay type: cell-based, Proteus mirabilis; settings: 18-20 hours at 37° C.
In short: as §1

Ps. aerug. MGH-2 = test: as above; assay type: cell-based, Pseudomonas aeruginosa; settings: 18-20 hours at 37° C.
In short: as §1

S. pyogen. C203 = test: as above; assay type: cell-based, Streptococcus pyogenes; settings: 18-20 hours at 37° C.
In short: as §1

A. niger 16404 = test: In vitro antifungal activity, MIC (modified Autotiter method); assay type: cell-based, Aspergillus niger; settings: 18-20 hours at 37° C.
In short: as §1

C. albicans 10231 = test: as above; assay type: cell-based, Candida albicans; settings: 18-20 hours at 37° C.
In short: as §1

C. albicans Wisc. = test: as above; assay type: cell-based, Candida albicans; settings: 18-20 hours at 37° C.
In short: as §1

T. menta. 9129 = test: as above; assay type: cell-based, Trichophyton mentagrophytes; settings: 18-20 hours at 37° C.
In short: as §1

[1] = system: Streptococcus mutans OMZ-61; test: Dental plaque-preventive effectiveness in the presence of sterile human saliva (50%); assay type: cell-based; settings: 50% sterile human saliva
Procedure: The dental plaque preventive activity of certain of the compounds of the present invention was determined by measuring the ability of these compounds to inhibit the production of dental plaque by Streptococcus mutans OMZ-61 as follows:
A culture medium for the plaque-producing Streptococcus mutans OMZ-61 containing 1.5 g. of BBL beef extract, 5 g. of sodium chloride, 10 g. of dehydrated trypticase, 5 g. of sucrose and sufficient distilled water to give a total volume of 1000 ml. is adjusted to pH 7.0 and sterilized by membrane filtration. The medium is dispensed aseptically in 10-ml. aliquots into 150×16 mm. test tubes and stored at refrigeration temperature until used.
Two concentrations of the compound to be tested are prepared by dissolving 100 mg. of the compound in 1 ml. of distilled water with the aid of sufficient 0.1 N sodium hydroxide, 10% dimethylsulfoxide or 10% N,N-dimethylformamide and diluting the resulting solution to 10 ml. with distilled water. This 1.0% solution and a 1:10 dilution in distilled water (0.1%) are sterilized by membrane filtration before use.
A sterile piece of plaque-free natural tooth enamel or synthetic hydroxylapatite is suspended in each concentration of compound for two 1-minute periods, each followed by a 1-minute air drying period. Each piece is then suspended and agitated for 5 minutes in individual test tubes containing sterile distilled water (rinse). They are then suspended in 10 ml. of liquid beef extract medium to which has been added 0.3 ml. of a 24-hr. anaerobic culture of Streptococcus mutans. The tubes containing the "treated" hydroxylapatite and the Streptococcus mutans are then incubated anaerobically at 37° C. for 24 hours. The same process of two 1-minute soaks in the solution of compound, each followed by 1 minute of air drying and the final 5-minute rinse is repeated before once again suspending the hydroxylapatite in a fresh tube containing 10 ml. of beef extract medium and 0.3 ml. of inoculum. At the end of the second 24-hour period, each piece of hydroxylapatite is rinsed for 1 minute in 3 successive tubes of distilled water. These are then suspended for 1 minute in a solution of F, D & C Red No. 3 dye. This staining procedure is used in order to identify more easily the development of plaque after the 48-hour period of exposure to the plaque-producing organism. The staining period is followed by another 10-second rinse to remove excess dye. Any plaque formation stains a brilliant pink. […] Active compounds are tested at successively lower doses in order to determine the minimum effective concentration. On some occasions, the interference of plaque production is caused by the inhibition of growth of the organism in the culture medium because the compound has been leached from the hydroxylapatite to produce an antibacterial level in the medium. When this occurs, the compound is tested at lower concentrations until the growth of the organism in the surrounding medium is equal to that in the nonmedicated control culture. Plaque may or may not be formed at these lower concentrations.
Dental plaque-preventive effectiveness in the presence of sterile human saliva (50%) was determined for representative examples.

[2] = system: young adult male Swiss-Webster strain albino mice; test: Acute oral toxicity (ALD50); assay type: in vivo
Procedure: (§2) The acute oral toxicity (ALD50) of several representative examples was determined as follows: Groups of 3 young adult male Swiss-Webster strain albino mice were fasted approximately 4 hours before medication and then medicated once orally by stomach tube.

[3] = Acute oral toxicity (ALD50); assay type: in vivo; settings: mouse, in vivo, po, mice, read-out: 7-Day ALD50
Procedure: as §2

S. Aureus ATCC 6538 = test: Effect of serum on bacteriostatic activity (serial tube dilution test); assay type: cell-based, Staphyloccocus aureus; settings: for MIC: Staphylococcus aureus, ATCC6538
Procedure: (§3) Antibacterial effectiveness in the presence of serum was determined for representative examples by the standard serial tube dilution test wherein paired comparisons of minimum inhibitory concentrations (MIC) were determined in the absence and in the presence of heat inactivated (30 min. at 56° C.) horse serum (40%) in the test medium. The results are expressed as the fold increase in MIC (mcg./ml.) versus Staphyloccocus aureus and Escherichia coli caused by the presence of serum and are presented in Table B hereinbelow.

E. Coli ATCC 8739 = test: as above; assay type: cell-based, Escherichia coli; settings: for MIC: Escherichia coli, ATCC8739
Procedure: as §3

[4] = 125 mg/kg oral, suspension in 1% G.T.
[5] = 500 mg/kg oral, suspension in 1% G.T.
[6] = 1000 mg/kg oral, suspension in 1% G.T.
[7] = 1250 mg/kg (so in the source) oral, suspension in 1% G.T.
[8] = 125 mg/kg oral, aqueous solution
[9] = 250 mg/kg oral, aqueous solution
[10] = 500 mg/kg oral, aqueous solution
[11] = 1000 mg/kg oral, aqueous solution
[12] = 250 mg/kg oral, suspension in 1% G.T.

Compound | MIC S. Aureus Smith (S. Aureus Smith) [µg/mL] | MIC E. coli 100/B22 (E. coli 100/B22) [µg/mL] | MIC E. coli AB1932-1 (E. coli AB1932-1) [µg/mL] | MIC E. coli Vogel (E. coli Vogel) [µg/mL] | MIC K. pneum. 39645 (K. pneum. 39645) [µg/mL] | MIC P. mirab. MGH-1 (P. mirab. MGH-1) [µg/mL] | MIC Ps. aerug. MGH-2 (Ps. aerug. MGH-2) [µg/mL] | MIC S. pyogen. C203 (S. pyogen. C203) [µg/mL] | MIC A. niger 16404 (A. niger 16404) [µg/mL] | MIC C. albicans 10231 (C. albicans 10231) [µg/mL] | MIC C. albicans Wisc. (C. albicans Wisc.) [µg/mL] | MIC T. menta. 9129 (T. menta. 9129) [µg/mL] | Mortality 7 Days [2, 4] | Mortality 24 Hrs [2, 4] | Mortality 7 Days [2, 5] | Mortality 24 Hrs [2, 5] | Mortality 7 Days [2, 6] | Mortality 24 Hrs [2, 6] | further results
CCCCCCCNc1cc[n+](CCCCCCCCCCCC[n+]2ccc(NCCCCCCC)cc2)cc1 [Example 4, 1,12-bis-[4-(heptylamino)-1-pyridinium]dodecane dichloride] | 0.25 | 0.5 | 1.0 | 0.5 | 1.95 | 1.95 | 3.9 | 1.0 | 7.8 | 1.95 | 1.95 | 0.5 | 0/3 | 0/3 | 0/3 | 0/3 | 0/3 | 0/3 | Dental Plaque Preventive Activity in 50% saliva Minimum Effective Conc. (%) [1]: Ca. 0.005%; Mortality 7 Days [2, 7]: 0/3; Mortality 24 Hrs [2, 7]: 0/3; 7-Day ALD50 ([2]; oral, suspension in 1% gum tragacanth, 10080 min): > 1000 mg/kg
CCCCCCNc1cc[n+](CCCCCCCCCCCCCC[n+]2ccc(NCCCCCC)cc2)cc1 [Example 6] | 0.5 | 0.5 | 0.5 | 1.0 | 1.0 | 3.9 | 3.9 | 1.95 | 3.9 | 1.0 | 1.95 | 0.5 |  |  |  |  |  |  | LD50 at 168 h ([3]; aqueous solution): 315 mg/kg; Mortality 7 Days [2, 8]: 1/3; Mortality 24 Hrs [2, 8]: 1/3; Mortality 7 Days [2, 9]: 1/3; Mortality 24 Hrs [2, 9]: 0/3; Mortality 7 Days [2, 10]: 2/3; Mortality 24 Hrs [2, 10]: 2/3; Mortality 7 Days [2, 11]: 3/3; Mortality 24 Hrs [2, 11]: 3/3
CCCCCCCNc1cc[n+](CCCCCCCCCC[n+]2ccc(NCCCCCCC)cc2)cc1 [Example 26, 1,10-bis-[4-(heptylamino)-1-pyridinium]decane dibromide] |  |  |  |  |  |  |  | 1.95 |  | 0.75 |  |  | 0/3 | 0/3 | 0/3 | 0/3 | 0/3 | 0/3 | MIC (S. Aureus Smith; Staphylococcus aureus, 20 h, read-out: MIC S. Aureus Smith): 0.37 µg/mL; MIC (E. coli 100/B22; Escherichia coli, 100/B22, 20 h, read-out: MIC E. coli 100/B22, 18-20 hours at 37° C.): 0.75 µg/mL; MIC (E. coli AB1932-1; Escherichia coli, AB19321, 20 h, read-out: MIC E. coli AB1932-1): 0.75 µg/mL; MIC (E. coli Vogel; Escherichia coli, 20 h, read-out: MIC E. coli Vogel): 0.75 µg/mL; MIC (K. pneum. 39645; Klebsiella pneumoniae, 20 h, read-out: MIC K. pneum. 39645): 1.49 µg/mL; MIC (P. mirab. MGH-1; Proteus mirabilis, 20 h, read-out: MIC P. mirab. MGH-1): 6 µg/mL; MIC (Ps. aerug. MGH-2; Pseudomonas aeruginosa, 20 h, read-out: MIC Ps. aerug. MGH-2): 11.9 µg/mL; MIC (A. niger 16404; Aspergillus niger, 16404, 20 h, read-out: MIC A. niger 16404): 2.98 µg/mL; MIC (C. albicans Wisc.; Candida albicans, 20 h, read-out: MIC C. albicans Wisc.): 1.49 µg/mL; MIC (T. menta. 9129; Trichophyton mentagrophytes, 20 h, read-out: MIC T. menta. 9129): 0.75 µg/mL; Fold Increase in MIC S. Aureus ATCC 6538 (S. Aureus ATCC 6538; 40% vs 0% horse serum): 16 fold; MIC (S. Aureus ATCC 6538; 40% heat inactivated horse serum, read-out: MIC S. Aureus ATCC 6538 40% Serum): 1.95 µg/mL; MIC (S. Aureus ATCC 6538; read-out: MIC S. Aureus ATCC 6538 0% Serum): 0.125 µg/mL; Fold Increase in MIC E. Coli ATCC 8739 (E. Coli ATCC 8739; 40% vs 0% horse serum): 16 fold; MIC (E. Coli ATCC 8739; 40% heat inactivated horse serum, read-out: MIC E. Coli ATCC 8739 40% Serum): 7.8 µg/mL; MIC (E. Coli ATCC 8739; read-out: MIC E. Coli ATCC 8739 0% Serum): 0.5 µg/mL; LD50 at 168 h ([3]; suspension in 1% gum tragacanth): > 1000 mg/kg; Mortality 7 Days [2, 12]: 0/3; Mortality 24 Hrs [2, 12]: 0/3
